Where “and” joins values, the source holds several entries; their conditions need not be identical. Equal values may be shown once.
Experiments:
[1] = system: animal model of severe sepsis; conditions: co-administration, mice; cited from earlier work
P2X7 = target: T1, P2X7 (Homo sapiens, UniProt Q99572); assay: YO-PRO-1 plate assay of P2X7 agonists with astrocytoma cell line 1321N1; assay type: cell-based; conditions: for YO-PRO-1 fluorescence (485/20, 528/20), single well: 5 × 10^4 1321N1 cells; for YO-PRO-1 fluorescence, average of duplicate wells: 1321N1 cells;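 on all read-outs here: dye uptake read after 20 min agonist exposure with YO-PRO-1 present, unbound dye removed by washing before reading in a fluorescence plate reader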
T1 construct: host or cells: astrocytoma cell line (the earlier reading names it 1321N1)
T1 sequence (Q99572 1-595): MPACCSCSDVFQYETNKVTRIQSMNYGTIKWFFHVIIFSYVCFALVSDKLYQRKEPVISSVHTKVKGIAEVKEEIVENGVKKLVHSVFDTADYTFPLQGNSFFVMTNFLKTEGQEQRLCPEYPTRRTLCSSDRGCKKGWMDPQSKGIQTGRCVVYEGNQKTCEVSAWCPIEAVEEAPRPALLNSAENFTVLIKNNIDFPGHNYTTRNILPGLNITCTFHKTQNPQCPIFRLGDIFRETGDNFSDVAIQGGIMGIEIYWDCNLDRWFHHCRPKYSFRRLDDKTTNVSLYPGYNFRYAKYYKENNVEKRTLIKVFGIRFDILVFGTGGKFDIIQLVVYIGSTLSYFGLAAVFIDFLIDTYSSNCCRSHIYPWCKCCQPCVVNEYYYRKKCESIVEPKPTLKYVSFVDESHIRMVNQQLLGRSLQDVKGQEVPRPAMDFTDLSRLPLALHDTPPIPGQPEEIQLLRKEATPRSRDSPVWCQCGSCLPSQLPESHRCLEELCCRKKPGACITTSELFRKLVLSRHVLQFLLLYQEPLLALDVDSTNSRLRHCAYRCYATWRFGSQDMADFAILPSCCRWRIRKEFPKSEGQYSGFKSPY

Row | SMILES | YO-PRO-1 fluorescence (485/20, 528/20), single well (P2X7; agent 3 μM + YOPRO) | YO-PRO-1 fluorescence (485/20, 528/20), single well (P2X7; agent 10 μM + YOPRO) | YO-PRO-1 fluorescence (485/20, 528/20), single well (P2X7; agent 30 μM + YOPRO) | YO-PRO-1 fluorescence (485/20, 528/20), single well (P2X7; agent 100 μM + YOPRO) | YO-PRO-1 fluorescence (485/20, 528/20), single well (P2X7; agent 300 μM + YOPRO) | YO-PRO-1 fluorescence, average of duplicate wells (P2X7; 1 uM, agent + YOPRO) | YO-PRO-1 fluorescence, average of duplicate wells (P2X7; 3 uM, agent + YOPRO) | also measured
1 | CSc1nc(N)c2ncn([C@@H]3O[C@H](COP(=O)(O)OP(=O)(O)OP(=O)(O)O)[C@@H](O)[C@H]3O)c2n1 [2MeSATP, 2-methylthio-adenosine 5′-triphosphate] | 109 and 102 | 144 | 157 and 154 | 155 and 170 | 168 and 162 | 105.5 | 144 | LPS-induced serum levels of TNF-alpha and IL-1 [1]: reductions in LPS-induced serum levels of TNF-alpha and IL-1; protection from endotoxic death [1]: protects mice from endotoxic death; YO-PRO-1 fluorescence (485/20, 528/20), single well (P2X7; agent 1 mM + YOPRO): 161 and 164
2 | Nc1ncnc2c1ncn2[C@@H]1O[C@H](COP(=O)(O)OP(=O)(O)NP(=O)(O)O)[C@@H](O)[C@H]1O [AMPPNP, adenosine 5′(beta,gamma-imido)triphosphate] | – | – | – | – | 75 and 86 | – | – | –
3 | CN([C@@H](Cc1ccc(OS(=O)(=O)c2cccc3cnccc23)cc1)C(=O)N1CCN(c2ccccc2)CC1)S(=O)(=O)c1cccc2cnccc12 [KN62] | – | – | – | – | – | – | – | YO-PRO-1 fluorescence (485/20, 528/20), single well (P2X7; 1 mM ATP + KN62 1 μM + YOPRO): 185 and 177; YO-PRO-1 fluorescence (485/20, 528/20), single well (P2X7; 1 mM ATP + KN62 3 μM + YOPRO): 181 and 176; YO-PRO-1 fluorescence (485/20, 528/20), single well (P2X7; 1 mM ATP + KN62 10 μM + YOPRO): 159; YO-PRO-1 fluorescence (485/20, 528/20), single well (P2X7; 1 mM ATP + KN62 30 μM + YOPRO): 155 and 153; YO-PRO-1 fluorescence (485/20, 528/20), single well (P2X7; 1 mM ATP + KN62 100 μM + YOPRO): 148; YO-PRO-1 fluorescence (485/20, 528/20), single well (P2X7; 1 mM ATP + KN62 300 μM + YOPRO): 152 and 165; YO-PRO-1 fluorescence, average of duplicate wells (P2X7; 1 mM ATP + KN62 1 uM + YOPRO): 181; YO-PRO-1 fluorescence, average of duplicate wells (P2X7; 1 mM ATP + KN62 3 uM + YOPRO): 178.5
4 | O=c1ccn([C@@H]2O[C@H](COP(=O)(O)OP(=O)(O)OP(=O)(O)O)[C@@H](O)[C@H]2O)c(=O)[nH]1 [UTP] | – | – | – | – | 72 and 73 | – | – | –
5 | Nc1ncnc2c1ncn2[C@@H]1O[C@H](COP(=O)(O)CP(=O)(O)OP(=O)(O)O)[C@@H](O)[C@H]1O [ab-CH2-ATP] | 68 and 69 | 74 | 74 and 78 | 89 and 83 | 101 and 116 | 67.5 | 68.5 | YO-PRO-1 fluorescence (485/20, 528/20), single well (P2X7; agent 1 μM + YOPRO): 68 and 67
